Results on seven molecules are retold here after ChEMBL document CHEMBL1201862, “PubChem BioAssay data set” (2004).

Molecules are shown by their SMILES. Active and inactive are the calls of the source.

The target in assay [1] is T1, Polyadenylate-binding protein 1 (Homo sapiens, UniProt P11940). Put plainly: MLLE binding blockers, Cy5 peptide tracer – biochemical, fluorescence polarization, Cy5-PAM2 peptide, secondary, miRNA deadenylation inhibitor project, dose response (AID 602260). In kind it is functional. The conditions noted are these: read-out: IC50_Mean. (Polarisation of emitted light reports the rotation of a fluorescent probe.)
T1 sequence (P11940 whole entry): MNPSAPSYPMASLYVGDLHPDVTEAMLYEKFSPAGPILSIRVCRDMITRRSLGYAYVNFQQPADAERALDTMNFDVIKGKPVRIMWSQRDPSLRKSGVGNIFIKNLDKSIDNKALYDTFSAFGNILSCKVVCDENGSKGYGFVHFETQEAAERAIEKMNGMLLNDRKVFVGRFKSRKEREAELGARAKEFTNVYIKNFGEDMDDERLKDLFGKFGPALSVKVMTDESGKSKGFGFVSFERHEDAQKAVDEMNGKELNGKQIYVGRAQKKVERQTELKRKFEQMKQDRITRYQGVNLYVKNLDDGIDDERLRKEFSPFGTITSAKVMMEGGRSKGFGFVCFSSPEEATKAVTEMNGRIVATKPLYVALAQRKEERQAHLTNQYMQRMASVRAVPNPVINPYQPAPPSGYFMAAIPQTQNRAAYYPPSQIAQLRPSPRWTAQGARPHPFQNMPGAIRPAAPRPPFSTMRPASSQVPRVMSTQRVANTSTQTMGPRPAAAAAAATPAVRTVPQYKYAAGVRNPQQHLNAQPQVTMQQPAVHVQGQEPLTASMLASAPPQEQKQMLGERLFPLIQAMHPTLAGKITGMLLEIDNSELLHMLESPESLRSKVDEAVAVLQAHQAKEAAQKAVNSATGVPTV

Assay [2] deals with T2, Female germline-specific tumor suppressor gld-1 (Caenorhabditis elegans, UniProt Q17339).
T2 sequence (Q17339 whole entry): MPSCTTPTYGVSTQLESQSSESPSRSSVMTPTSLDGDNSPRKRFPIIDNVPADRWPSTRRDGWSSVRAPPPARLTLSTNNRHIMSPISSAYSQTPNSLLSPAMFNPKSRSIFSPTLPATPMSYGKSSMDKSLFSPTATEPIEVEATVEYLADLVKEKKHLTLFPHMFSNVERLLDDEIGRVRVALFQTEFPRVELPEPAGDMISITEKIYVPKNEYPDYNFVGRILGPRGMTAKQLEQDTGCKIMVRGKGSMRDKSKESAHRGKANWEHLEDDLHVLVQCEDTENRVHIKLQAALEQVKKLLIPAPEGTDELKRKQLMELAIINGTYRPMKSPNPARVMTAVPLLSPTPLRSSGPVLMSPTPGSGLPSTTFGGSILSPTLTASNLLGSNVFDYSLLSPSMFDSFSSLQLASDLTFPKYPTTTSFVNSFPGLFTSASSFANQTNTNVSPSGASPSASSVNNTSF
Put plainly: blockers of GLD-1/TGE RNA complex formation – biochemical, fluorescence polarization, C. elegans, dose response (AID 2802).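 Further: fluorescence polarization of labeled TGE RNA bound by purified gld-1 protein.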

Assay [3] concerns the target T1, Polyadenylate-binding protein 1. Put plainly: MLLE domain peptide-binding blockers, IC50 – biochemical, fluorescence polarization, FITC-PAM2 peptide, dose response (AID 602259). It is filed as functional. The conditions noted are these: read-out: IC50_Mean.
A further assay deals with T3, Protein Rev (Human immunodeficiency virus type 1 group M subtype B (isolate HXB2)(HIV-1), UniProt P04618).
T3 sequence (P04618 whole entry): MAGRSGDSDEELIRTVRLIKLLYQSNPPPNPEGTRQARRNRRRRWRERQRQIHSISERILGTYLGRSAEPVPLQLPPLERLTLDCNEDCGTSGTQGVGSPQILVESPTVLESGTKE
In words: blockers of HIV Rev/RRE RNA complex – biochemical, fluorescence polarization, HIV-1, dose response (AID 434976). The arrangement: species or system Human immunodeficiency virus 1.

Assay [4] deals with HEK293. Put plainly: cells. The following applies: Homo sapiens. It is filed as functional, cell-based.
The subject of assay [5] is HEK293. In words: cells. In kind it is functional, cell-based. The following applies: Homo sapiens. This is another data set of the same source.
The subject of assay [6] is HEK293. In words: cells. It is filed as functional, cell-based. The conditions noted are these: Homo sapiens. The source holds these as a separate data set.
Assay [7] concerns the target T4, Calpain-2 catalytic subunit (Sus scrofa, UniProt P43367).
T4 sequence (P43367 whole entry): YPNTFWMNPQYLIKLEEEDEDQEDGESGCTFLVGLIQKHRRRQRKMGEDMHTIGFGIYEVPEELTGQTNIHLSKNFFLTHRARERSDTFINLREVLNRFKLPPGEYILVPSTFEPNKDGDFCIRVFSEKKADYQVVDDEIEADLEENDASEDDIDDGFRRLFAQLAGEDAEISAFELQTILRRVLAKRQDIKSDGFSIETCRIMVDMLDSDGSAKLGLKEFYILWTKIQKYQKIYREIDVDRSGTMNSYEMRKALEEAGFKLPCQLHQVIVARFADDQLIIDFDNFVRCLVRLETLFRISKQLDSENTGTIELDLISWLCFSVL
Put plainly: m-calpain protease blockers, concentration series – biochemical, fluorogenic peptide substrate, dose response (AID 1420). It is filed as functional.

For assay [8], the system named is HEK293. In words: NOD2 signaling inhibitors in MDP-stimulated cells, cell-based, uHTS, luminescence (AID 2001). It is filed as functional. The following applies: Homo sapiens.
Assay [9] deals with HEK293. Put plainly: inhibition of NOD1-driven NF-kB reporter – cell-based, luminescence, uHTS, primary screen (AID 1578). It is filed as functional. The following applies: Homo sapiens.
The target of assay [10] is Nucleotide-binding oligomerization domain-containing protein 2 (Homo sapiens, UniProt Q9HC29). In words: inhibition of NOD2-driven NF-kB reporter – cell-based, luminescence, uHTS, HEK293 (AID 1566). It is filed as functional.
Sequence of Nucleotide-binding oligomerization domain-containing protein 2 (Q9HC29 whole entry, the tested form may be a part): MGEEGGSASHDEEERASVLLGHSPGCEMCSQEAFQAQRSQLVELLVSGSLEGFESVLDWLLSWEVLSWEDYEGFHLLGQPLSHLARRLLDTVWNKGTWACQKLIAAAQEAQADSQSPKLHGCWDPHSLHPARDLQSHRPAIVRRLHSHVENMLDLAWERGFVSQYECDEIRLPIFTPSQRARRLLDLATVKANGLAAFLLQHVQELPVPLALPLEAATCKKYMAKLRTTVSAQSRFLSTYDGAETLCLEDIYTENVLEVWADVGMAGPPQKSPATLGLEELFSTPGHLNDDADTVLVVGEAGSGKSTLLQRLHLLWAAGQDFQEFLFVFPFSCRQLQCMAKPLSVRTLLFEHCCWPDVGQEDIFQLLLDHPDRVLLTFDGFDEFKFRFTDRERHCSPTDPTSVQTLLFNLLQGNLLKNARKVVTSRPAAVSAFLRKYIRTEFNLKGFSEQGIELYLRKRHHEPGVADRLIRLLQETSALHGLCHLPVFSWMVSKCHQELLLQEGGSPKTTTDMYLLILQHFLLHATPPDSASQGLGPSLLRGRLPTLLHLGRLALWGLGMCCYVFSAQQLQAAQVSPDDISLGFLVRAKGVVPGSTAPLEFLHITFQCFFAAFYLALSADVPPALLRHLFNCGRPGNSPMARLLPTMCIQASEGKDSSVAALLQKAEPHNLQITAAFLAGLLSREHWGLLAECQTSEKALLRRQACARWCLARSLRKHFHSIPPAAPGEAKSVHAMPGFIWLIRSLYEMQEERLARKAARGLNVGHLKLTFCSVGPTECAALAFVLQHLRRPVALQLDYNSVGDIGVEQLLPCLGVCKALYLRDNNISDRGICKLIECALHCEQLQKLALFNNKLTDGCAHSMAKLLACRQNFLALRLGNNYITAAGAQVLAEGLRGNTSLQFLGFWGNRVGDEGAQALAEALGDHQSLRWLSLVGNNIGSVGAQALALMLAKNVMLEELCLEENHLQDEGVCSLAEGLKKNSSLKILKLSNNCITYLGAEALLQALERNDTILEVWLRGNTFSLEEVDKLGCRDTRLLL
For assay [11], the target named is T5, Corticotropin-releasing factor receptor 2/Corticotropin-releasing factor-binding protein (Homo sapiens, UniProt P24387+Q13324).
T5 sequence (Q13324 whole entry): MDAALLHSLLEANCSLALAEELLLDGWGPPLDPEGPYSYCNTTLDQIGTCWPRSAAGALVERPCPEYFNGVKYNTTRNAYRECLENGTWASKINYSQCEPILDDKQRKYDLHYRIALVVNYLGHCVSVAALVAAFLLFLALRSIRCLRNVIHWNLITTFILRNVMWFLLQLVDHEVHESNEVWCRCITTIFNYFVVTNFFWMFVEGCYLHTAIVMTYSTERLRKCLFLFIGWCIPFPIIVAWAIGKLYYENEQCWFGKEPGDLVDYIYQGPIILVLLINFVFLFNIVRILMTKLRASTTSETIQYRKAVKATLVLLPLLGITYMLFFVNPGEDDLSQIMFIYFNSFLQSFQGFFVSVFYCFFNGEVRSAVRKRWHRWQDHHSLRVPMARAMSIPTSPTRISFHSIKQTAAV
T5 sequence (P24387 whole entry): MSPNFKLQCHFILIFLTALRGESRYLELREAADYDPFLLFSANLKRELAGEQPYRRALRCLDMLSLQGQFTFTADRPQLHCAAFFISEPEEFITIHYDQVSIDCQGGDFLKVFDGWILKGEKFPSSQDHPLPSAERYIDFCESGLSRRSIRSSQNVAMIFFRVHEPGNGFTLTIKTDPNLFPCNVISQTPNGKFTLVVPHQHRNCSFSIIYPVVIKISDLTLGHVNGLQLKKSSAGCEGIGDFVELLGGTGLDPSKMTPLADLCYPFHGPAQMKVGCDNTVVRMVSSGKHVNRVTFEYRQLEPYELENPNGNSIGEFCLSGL
Put plainly: Dose Response confirmation of uHTS hits for small molecule antagonists of the CRF-binding protein and CRF-R2 receptor complex. In kind it is functional. The following applies: read-out: IC50_Mean.

The target of assay [12] is T5, Corticotropin-releasing factor receptor 2/Corticotropin-releasing factor-binding protein. In words: activators of CRF receptor 2 with binding protein – uHTS hits, confirmation (AID 602473). In kind it is functional. The following applies: read-out: EC50_Mean.
A further assay deals with T6, Cytochrome P450 1A2 (Homo sapiens, UniProt P05177).
T6 sequence (P05177 whole entry): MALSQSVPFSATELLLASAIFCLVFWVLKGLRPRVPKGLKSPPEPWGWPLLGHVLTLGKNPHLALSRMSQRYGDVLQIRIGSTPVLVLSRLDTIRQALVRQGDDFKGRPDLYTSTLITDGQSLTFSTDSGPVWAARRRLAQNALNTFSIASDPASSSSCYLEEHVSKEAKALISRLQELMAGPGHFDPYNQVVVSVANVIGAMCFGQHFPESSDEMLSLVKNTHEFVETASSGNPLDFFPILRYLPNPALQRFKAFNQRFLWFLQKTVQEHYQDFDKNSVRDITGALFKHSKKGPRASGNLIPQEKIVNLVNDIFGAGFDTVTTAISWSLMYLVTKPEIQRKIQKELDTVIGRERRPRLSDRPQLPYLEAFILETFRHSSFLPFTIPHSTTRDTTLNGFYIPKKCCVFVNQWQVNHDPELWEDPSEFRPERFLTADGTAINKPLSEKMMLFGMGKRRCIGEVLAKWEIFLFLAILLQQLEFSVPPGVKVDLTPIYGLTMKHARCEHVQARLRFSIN

Assay [13] has as its target DNA damage-inducible transcript 3 protein (Mus musculus, UniProt P35639). In kind it is functional, Cricetulus griseus.
The target of another assay is T7, X-box-binding protein 1 (Homo sapiens, UniProt P17861).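 Further: confirmatory dose-response counter-screen serving a CHOP assay.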
T7 sequence (P17861 whole entry): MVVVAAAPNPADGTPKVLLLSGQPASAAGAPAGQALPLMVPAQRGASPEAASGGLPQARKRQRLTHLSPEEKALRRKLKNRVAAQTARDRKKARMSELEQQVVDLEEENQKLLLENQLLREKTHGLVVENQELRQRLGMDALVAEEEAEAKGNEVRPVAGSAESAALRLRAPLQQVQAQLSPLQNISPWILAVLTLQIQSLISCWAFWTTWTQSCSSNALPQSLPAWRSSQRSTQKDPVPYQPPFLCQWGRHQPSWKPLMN
In kind it is functional, Cricetulus griseus.

The target in the next assay is Cytochrome P450 2C9 (Homo sapiens, UniProt P11712).
Sequence of Cytochrome P450 2C9 (P11712 whole entry): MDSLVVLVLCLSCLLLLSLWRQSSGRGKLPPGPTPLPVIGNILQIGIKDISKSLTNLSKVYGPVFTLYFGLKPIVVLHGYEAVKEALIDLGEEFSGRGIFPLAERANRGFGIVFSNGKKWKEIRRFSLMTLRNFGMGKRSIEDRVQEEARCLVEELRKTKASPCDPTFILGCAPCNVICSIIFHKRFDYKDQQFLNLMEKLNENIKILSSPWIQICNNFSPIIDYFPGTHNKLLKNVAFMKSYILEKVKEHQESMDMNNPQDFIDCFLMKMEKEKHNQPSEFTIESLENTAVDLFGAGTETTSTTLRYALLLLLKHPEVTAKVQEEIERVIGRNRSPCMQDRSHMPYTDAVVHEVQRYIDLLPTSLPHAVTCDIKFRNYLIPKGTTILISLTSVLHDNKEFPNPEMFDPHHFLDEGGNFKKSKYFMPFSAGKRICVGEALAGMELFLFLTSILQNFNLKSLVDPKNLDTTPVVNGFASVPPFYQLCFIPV
The target of assay [14] is T8, Kappa-type opioid receptor (Homo sapiens, UniProt P41145). It is filed as functional.
T8 sequence (P41145 whole entry): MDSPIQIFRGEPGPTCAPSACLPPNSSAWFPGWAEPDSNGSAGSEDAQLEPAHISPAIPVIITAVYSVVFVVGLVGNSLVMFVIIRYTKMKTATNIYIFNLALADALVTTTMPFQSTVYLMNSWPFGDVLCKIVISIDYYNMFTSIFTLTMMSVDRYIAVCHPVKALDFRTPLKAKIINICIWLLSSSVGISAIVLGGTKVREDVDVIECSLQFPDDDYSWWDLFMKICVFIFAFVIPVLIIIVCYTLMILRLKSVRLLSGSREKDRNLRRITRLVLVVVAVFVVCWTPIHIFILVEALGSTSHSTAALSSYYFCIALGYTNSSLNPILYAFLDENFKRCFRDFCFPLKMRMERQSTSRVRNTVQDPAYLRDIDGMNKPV
Assay [15] addresses T8, Kappa-type opioid receptor. In kind it is functional. This is another data set of the same source.
The target in assay [16] is Heat shock protein HSP 90-alpha (Homo sapiens, UniProt P07900). It is filed as functional, organism-based.
Another assay has as its target Beta-galactosidase (Escherichia coli, UniProt Q8VNN2). It is filed as functional.
For a further assay, the system named is INS1. Put plainly: INS-1E survival protection against cytokine death – cell-based, luminescence, retest, dose response (AID 449756).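 Further: cell death triggered by IL-1 beta plus TNF-alpha plus IFN-gamma mixture; protective hits raise ATP signal compared with cytokine alone wells.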 In kind it is functional. The conditions noted are these: Rattus norvegicus.
The nature of assay [17]: Luminescence Cell-Based Dose Retest to Confirm Inhibitors of Cancer Stem Cells. [Related pubchem assays (depositor defined):AID2717, AID2721]. In kind it is functional. The conditions noted are these: Homo sapiens.
Another assay addresses T9, Streptokinase A (Streptococcus pyogenes serotype M1, UniProt P10520).
T9 sequence (P10520 whole entry): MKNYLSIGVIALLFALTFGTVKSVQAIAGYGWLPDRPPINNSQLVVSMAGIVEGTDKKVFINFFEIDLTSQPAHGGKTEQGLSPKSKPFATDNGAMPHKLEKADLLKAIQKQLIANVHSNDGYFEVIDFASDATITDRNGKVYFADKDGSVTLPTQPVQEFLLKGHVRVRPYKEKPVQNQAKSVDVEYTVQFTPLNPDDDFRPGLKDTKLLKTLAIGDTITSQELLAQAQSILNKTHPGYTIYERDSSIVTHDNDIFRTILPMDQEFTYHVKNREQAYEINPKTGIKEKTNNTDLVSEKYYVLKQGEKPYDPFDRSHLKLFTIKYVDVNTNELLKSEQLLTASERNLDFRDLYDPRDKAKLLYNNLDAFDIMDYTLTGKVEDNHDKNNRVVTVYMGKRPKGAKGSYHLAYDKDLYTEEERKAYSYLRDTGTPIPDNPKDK
In words: viability-normalized secreted streptokinase activity reduction – plasminogen activation absorbance, OD405, dose response (AID 1914).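 Further: secreted streptokinase activity via plasminogen activation per viability signal from cell pellet.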 It is filed as functional, Streptococcus pyogenes M1 GAS.

Assay [18] relates to Streptococcus sp. 'group A'. In words: Streptococcus pyogenes SK(-)GAS viability under kanamycin – luminescence, BacTiterGlo, confirmation, counter-screen for streptokinase expression inhibitor project, dose response (AID 1900). In kind it is functional, organism-based. (Counterscreens check selectivity or assay interference.)
Assay [19] is described as follows: microbe, parasite or virus in culture. In kind it is functional. The conditions noted are these: Mycobacterium tuberculosis.
For a further assay, the system named is Streptococcus. Put plainly: GAS UMAA2166 growth inhibition – luminescence, BacTiterGlo, counter-screen for streptokinase expression inhibitor project, dose response (AID 1915).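 Further: potency for reduction of bacterial viability or growth.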 It is filed as functional, organism-based.

Sequence of Beta-galactosidase (Q8VNN2 whole entry): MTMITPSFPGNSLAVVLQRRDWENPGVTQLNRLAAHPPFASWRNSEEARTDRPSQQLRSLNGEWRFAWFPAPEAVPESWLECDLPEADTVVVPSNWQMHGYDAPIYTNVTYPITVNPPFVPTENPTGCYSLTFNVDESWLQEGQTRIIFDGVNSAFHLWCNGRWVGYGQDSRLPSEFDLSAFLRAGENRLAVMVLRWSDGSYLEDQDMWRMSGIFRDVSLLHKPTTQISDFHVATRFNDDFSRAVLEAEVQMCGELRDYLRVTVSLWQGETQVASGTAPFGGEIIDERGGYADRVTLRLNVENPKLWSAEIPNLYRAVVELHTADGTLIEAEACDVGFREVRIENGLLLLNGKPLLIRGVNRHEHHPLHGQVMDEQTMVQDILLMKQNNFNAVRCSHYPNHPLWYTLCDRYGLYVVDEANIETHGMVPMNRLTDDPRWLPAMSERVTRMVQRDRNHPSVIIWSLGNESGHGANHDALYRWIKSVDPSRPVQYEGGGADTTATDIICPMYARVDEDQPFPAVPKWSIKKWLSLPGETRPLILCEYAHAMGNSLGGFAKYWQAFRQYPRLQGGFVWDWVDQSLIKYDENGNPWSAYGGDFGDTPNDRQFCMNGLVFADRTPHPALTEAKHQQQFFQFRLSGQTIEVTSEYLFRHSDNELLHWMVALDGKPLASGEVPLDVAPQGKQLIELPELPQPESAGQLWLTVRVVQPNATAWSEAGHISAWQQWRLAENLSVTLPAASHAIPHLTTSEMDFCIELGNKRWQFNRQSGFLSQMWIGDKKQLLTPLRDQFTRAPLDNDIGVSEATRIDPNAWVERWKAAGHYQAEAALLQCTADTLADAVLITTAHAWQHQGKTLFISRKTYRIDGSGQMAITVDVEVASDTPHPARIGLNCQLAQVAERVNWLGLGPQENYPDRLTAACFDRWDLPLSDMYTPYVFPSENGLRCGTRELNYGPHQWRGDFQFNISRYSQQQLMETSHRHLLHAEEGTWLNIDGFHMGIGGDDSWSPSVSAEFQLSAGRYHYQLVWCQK
Sequence of DNA damage-inducible transcript 3 protein (P35639 whole entry): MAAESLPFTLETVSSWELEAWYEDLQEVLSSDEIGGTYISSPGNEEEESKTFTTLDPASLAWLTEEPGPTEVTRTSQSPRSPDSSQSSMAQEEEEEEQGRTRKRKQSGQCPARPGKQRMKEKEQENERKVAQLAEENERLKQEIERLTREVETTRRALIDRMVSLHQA

`CC(=O)Nc1ccc2nc3ccccc3nc2c1`: the IC50 was > 66 µM (inactive) in [1], 5.86 µM (active) in assay [2], 44.9 µM (inactive) in assay [3] and 14.8 µM (not active) against Protein Rev.
With `CCc1ccc(C(=O)OCC(=O)c2c(N)n(CC(C)C)c(=O)n(C)c2=O)cc1`, the IC50 with HEK293 [4] is > 20 µM (inactive); in the assay on HEK293 [5] it was 13.8 µM (active); in the assay on HEK293 [6], 8.39 µM (active); in [7], 2.96 µM (not active); with HEK293 [8], 15.6 µM (inactive). In addition, the EC50 in the assay on HEK293 [9] was 12.4 µM (active); in [10], > 20 µM (inactive).
As for `Cc1nc2ccc(NS(=O)(=O)c3ccc(C)c(C)c3)cc2s1`, the IC50 in the assay on HEK293 [4] was > 20 µM (inactive); in the assay with HEK293 [5], > 20 µM (inactive); in the assay on HEK293 [6] it was 10.9 µM (active); in the assay on HEK293 [8], 10.4 µM (inactive); in assay [11] it was > 47.1 µM (inactive). The EC50 is 3.65 µM (active) in the assay on HEK293 [9], 9.53 µM (active) in assay [10] and > 53 µM (inactive) in assay [12].
Turning to `Cc1ccc(-c2nn(C)c(=O)c3ccccc23)cc1CNC(=O)Cn1nc(-c2ccccc2)c2ccccc2c1=O`, the half-maximal activity concentration (AC50) – broadly, the concentration giving half of the maximal activity seen – is 31.6 µM (inconclusive) on Cytochrome P450 1A2 and 11.2 µM (inconclusive) on Cytochrome P450 2C9. In [13], the “Absolute IC50 (CHOP)” value was 10 µM. In addition, the “Absolute IC50 (XBP1)” value on X-box-binding protein 1 worked out at 10 µM.
`O=C(C#Cc1ccccc1)c1ccc([N+](=O)[O-])cc1`: the IC50 in [14] is 9.68 µM (active); in assay [15] it was 16.3 µM. The AC50 in [16] is 1.38 µM (active). In addition, the EC50 on Beta-galactosidase was > 31.5 µM (inactive).
For `Cc1ccccc1NC(=N)Nc1ccccc1C`, the IC50 in assay [1] was > 66 µM (inactive); in assay [2], 5.2 µM (active); in assay [3] it was 19.8 µM (active); at Protein Rev, 8.31 µM (active).
For the molecule `C(=N\Nc1ncnc2sc3c(c12)CCC3)/c1cccs1`, the AC50 in the assay with INS1 is 5.3 µM (active); in assay [17], 5.38 µM (active). The results for the EC50 (at Streptokinase A; in assay [18]; in the assay on Streptococcus) were > 150 µM (not active), 15.8 µM (active) and 19.5 µM (active), respectively. Also, the “Absolute IC50 (XBP1)” value at X-box-binding protein 1 was found to be 10 µM. Further, in assay [19], the CC50 is 15.7 µM (active).
